Reference: PubChem BioAssay AID248 (DTP/NCI, 2004)
Inconclusive results and toxic doses are left out. Rule as the data show it: active = T/C of 150% or more; inactive = T/C below 125%.

Tested on: L1210 leukemia ip in BDF1 mice, survival T/C
Assay: NCI In Vivo Anticancer Drug Screen. Data for tumor model L1210 Leukemia (intraperitoneal) in B6D2F1 (BDF1) mice
Details: endpoint: mean survival time, higher = longer survival
Procedure, shortened: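 In this screen, tumor-bearing mice given compound are compared to those given vehicle, and their survival values are reported as a treated-to-control quotient.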

[1] = dose: 100.0 mg/kg/injection, schedule: Q04DX003 (ip), vehicle: Klucel (hydroxypropylcellulose) (HPC)
[2] = dose: 200.0 mg/kg/injection, schedule: Q04DX003 (ip), vehicle: Klucel (hydroxypropylcellulose) (HPC)
[3] = dose: 400.0 mg/kg/injection, schedule: Q04DX003 (ip), vehicle: Klucel (hydroxypropylcellulose) (HPC)
[4] = dose: 100.0 mg/kg/injection, schedule: Q01DX001 (ip), vehicle: saline
[5] = dose: 200.0 mg/kg/injection, schedule: Q01DX001 (ip), vehicle: saline
[6] = dose: 400.0 mg/kg/injection, schedule: Q01DX001 (ip), vehicle: saline
[7] = dose: 100.0 mg/kg/injection, schedule: Q04DX002 (ip), vehicle: saline with Tween-80
[8] = dose: 200.0 mg/kg/injection, schedule: Q04DX002 (ip), vehicle: saline with Tween-80
[9] = dose: 50.0 mg/kg/injection, schedule: Q04DX002 (ip), vehicle: saline with Tween-80
[10] = dose: 100.0 mg/kg/injection, schedule: Q04DX003 (ip), vehicle: saline
[11] = dose: 200.0 mg/kg/injection, schedule: Q04DX003 (ip), vehicle: saline
[12] = dose: 400.0 mg/kg/injection, schedule: Q04DX003 (ip), vehicle: saline
[13] = dose: 100.0 mg/kg/injection, schedule: Q01DX009 (ip), vehicle: Klucel (hydroxypropylcellulose) (HPC)
[14] = dose: 200.0 mg/kg/injection, schedule: Q01DX009 (ip), vehicle: Klucel (hydroxypropylcellulose) (HPC)
[15] = dose: 400.0 mg/kg/injection, schedule: Q01DX009 (ip), vehicle: Klucel (hydroxypropylcellulose) (HPC)
[16] = dose: 100.0 mg/kg/injection, schedule: Q01DX001 (ip), vehicle: carboxymethylcellulose (CMC)
[17] = dose: 200.0 mg/kg/injection, schedule: Q01DX001 (ip), vehicle: carboxymethylcellulose (CMC)
[18] = dose: 400.0 mg/kg/injection, schedule: Q01DX001 (ip), vehicle: carboxymethylcellulose (CMC)
[19] = dose: 100.0 mg/kg/injection, schedule: Q01DX009 (ip), vehicle: saline
[20] = dose: 200.0 mg/kg/injection, schedule: Q01DX009 (ip), vehicle: saline
[21] = dose: 400.0 mg/kg/injection, schedule: Q01DX009 (ip), vehicle: saline

Measured: T/C

CCOC(=O)Cn1c(=O)c2ccccc2c2cc(Br)ccc21
inactive: dose: 100.0 mg/kg/injection, schedule: Q01DX001 (ip), vehicle: Klucel (hydroxypropylcellulose) (HPC) 89 % of control | dose: 200.0 mg/kg/injection, schedule: Q01DX001 (ip), vehicle: Klucel (hydroxypropylcellulose) (HPC) 100 % of control | dose: 400.0 mg/kg/injection, schedule: Q01DX001 (ip), vehicle: Klucel (hydroxypropylcellulose) (HPC) 92 % of control

CCCCC1C/C=C/C=C/C=C/C=C/C(OC2OC(C)C(O)C(N)C2O)CC2OC(O)(CC(O)CC3OC3/C=C/C(=O)O1)CC(O)C2C(=O)O (stereo not drawn)
inactive: [1] 96 % of control | [2] 98 % of control | [3] 107 % of control

CC(=O)Oc1ccc(CCNC(c2ccccc2)c2ccccc2)cc1OC(C)=O
inactive: [4] 100 % of control | [5] 107 % of control | [6] 86 % of control

C=CC[P+](CC)(c1ccccc1)c1ccccc1
inactive: dose: 3.13 mg/kg/injection, schedule: Q01DX009 (ip), vehicle: saline 97 % of control

S=P(c1ccccc1)(c1ccccc1)N1CCCCC1
inactive: [7] 96 % of control | [8] 93 % of control | dose: 400.0 mg/kg/injection, schedule: Q04DX002 (ip), vehicle: saline with Tween-80 93 % of control

c1ccc2c(c1)CCC1C3CCCC3OCN21 (stereo not drawn)
inactive: [9] 101 % of control | [7] 101 % of control | [8] 104 % of control

CC12CCC3(CC1CC/C(=C\c1ccco1)C2=O)OCCO3 (stereo not drawn)
inactive: [4] 101 % of control | [10] 108 % of control | [5] 92 % of control | [11] 95 % of control | [6] 97 % of control | [12] 98 % of control

COc1ccc(Cl)cc1NC(=O)Nc1ccc(Nc2ccccc2)cc1
inactive: [13] 104 % of control | [1] 101 % of control | [14] 101 % of control | [2] 98 % of control | [15] 86 % of control | [3] 97 % of control

CC1(C)OC2C(COC(N)=O)OC(n3cnc4c(=O)[nH]c(N)nc43)C2O1 (stereo not drawn)
inactive: dose: 100.0 mg/kg/injection, schedule: Q01DX005 (ip), vehicle: saline 105 % of control | dose: 200.0 mg/kg/injection, schedule: Q01DX005 (ip), vehicle: saline 103 % of control

CC#CC(O)(C(=O)OC)c1ccccc1 (stereo not drawn)
inactive: [16] 94 % of control | [17] 102 % of control | [18] 108 % of control

Cc1ccc(S(=O)(=O)C2CCCC2Cl)cc1 (stereo not drawn)
inactive: [16] 109 % of control | [4] 107 % of control | [17] 104 % of control | [5] 104 % of control | [18] 104 % of control | [6] 87 % of control

CC(C)c1ccc2ccccc2c1
inactive: dose: 100.0 mg/kg/injection, schedule: Q01DX009 (ip), vehicle: saline with Tween-80 95 % of control | dose: 200.0 mg/kg/injection, schedule: Q01DX009 (ip), vehicle: saline with Tween-80 107 % of control

O=C1OCC/C1=C/CCC/C=C1\CCOC1=O
inactive: [13] 101 % of control | [1] 100 % of control | [14] 102 % of control | [2] 94 % of control | [15] 88 % of control | [3] 92 % of control

CCCCC(C)C1(CC)C(=O)NC(=O)NC1=O (stereo not drawn)
inactive: dose: 75.0 mg/kg/injection, schedule: Q01DX001 (ip), vehicle: saline 95 % of control

CCOc1ccc(/C=N/NC(=O)c2ccccc2N)cc1OC
inactive: dose: 100.0 mg/kg/injection, schedule: Q04DX002 (ip), vehicle: Klucel (hydroxypropylcellulose) (HPC) 97 % of control | dose: 200.0 mg/kg/injection, schedule: Q04DX002 (ip), vehicle: Klucel (hydroxypropylcellulose) (HPC) 102 % of control | dose: 400.0 mg/kg/injection, schedule: Q04DX002 (ip), vehicle: Klucel (hydroxypropylcellulose) (HPC) 105 % of control

OC(Cc1cncc(CC(O)(C(F)(F)F)C(F)(F)F)n1)(C(F)(F)F)C(F)(F)F
inactive: [19] 95 % of control | [10] 96 % of control | [20] 105 % of control | [11] 92 % of control | [21] 98 % of control | [12] 97 % of control

c1cc(Cc2ccc3c(c2)OCO3)c[nH]1
inactive: [9] 103 % of control | [7] 110 % of control | [8] 100 % of control

[Si]C1CCCCC1
inactive: dose: 100.0 mg/kg/injection, schedule: Q01DX001 (ip), vehicle: saline with Tween-80 96 % of control | dose: 200.0 mg/kg/injection, schedule: Q01DX001 (ip), vehicle: saline with Tween-80 89 % of control | dose: 400.0 mg/kg/injection, schedule: Q01DX001 (ip), vehicle: saline with Tween-80 96 % of control

O=C1NC2(c3ccccc3)NC(=O)NC2(c2ccccc2)N1 (stereo not drawn)
inactive: [4] 97 % of control | [19] 91 % of control | [10] 102 % of control | [5] 92 % of control | [20] 97 % of control | [11] 95 % of control | [6] 100 % of control | [21] 102 % of control | [12] 102 % of control

COc1cc(NCCS(C)(=O)=O)ccc1C(=O)Nc1ccccc1
inactive: [13] 105 % of control | [1] 97 % of control | [14] 97 % of control | [2] 94 % of control | [15] 101 % of control | [3] 94 % of control
